In patent publication US7294643B2, “UK-1 analogues: methods of preparation and use” (Board of Regents, The University of Texas System, priority 2002, dated 2007):

Legend:
[1] = system: MCF-7 cells; test: alamarBlue cytotoxicity assay, MCF-7; assay type: cell-based; details: Homo sapiens, MCF7; MCF-7, alamarBlue, 72 h
Method: (§1) Cytotoxicity Assays. Cell culture cytotoxicity assays were performed using the. alamarBlue method, as described by Ahmed et al., J. Immun. Methods 1994, 170, 211-224, which is incorporated herein by reference. Briefly, aliquots of 100 μL of cell suspension (1.0-2.5×10^3 cells) was placed in 96-well microtiter plates in an atmosphere of 5% CO2 at 37° C. After 24 hours, 100 μL of culture medium and 2 μL of compound in vehicle (culture media with 40% pyridine) or vehicle alone were added, and the plates incubated an additional 72 hours. The final pyridine concentration in all cases was 0.4%; at this pyridine concentration there was no affect on the growth of cells compared to cells in culture media without added pyridine. […] After the culture media had been removed from each well, 200 μL of fresh media and 20 μL of 90% alamarBlue reagent were added, followed by an additional 6 h incubation. The fluorescent intensity was measured using a Spectrafluor Plus plate reader with excitation at 530 nm and emission at 590 nm. Results are reported as IC50 values, the average concentration required to produce a decrease of fluorescent intensity of 50% relative to vehicle-treated controls in two separate determinations.

[2] = system: HT-29 cells; test: alamarBlue cytotoxicity assay, HT-29; assay type: cell-based; details: Homo sapiens; HT-29, alamarBlue, 72 h
Method: as §1

[3] = system: MDA-231; test: alamarBlue cytotoxicity assay, MDA-231; assay type: cell-based; details: Homo sapiens, MDA-MB-231; MDA-231, alamarBlue
Method: as §1

[4] = system: BT-20; test: alamarBlue cytotoxicity assay, BT-20; assay type: cell-based; details: Homo sapiens; BT-20, alamarBlue
Method: as §1

[5] = system: SK-N-SH; test: alamarBlue cytotoxicity assay, SK-N-SH; assay type: cell-based; details: Homo sapiens
Method: as §1

[6] = alamarBlue cytotoxicity, range over four cell lines; assay type: cell-based; details: human
Method: as §1, with “hours.” for “hours. The final pyridine concentration in all cases was 0.4%; at this pyridine concentration there was no affect on the growth of cells compared to cells in culture media without added pyridine.”, “nm.” for “nm. Results are reported as IC50 values, the average concentration required to produce a decrease of fluorescent intensity of 50% relative to vehicle-treated controls in two separate determinations.”

[7] = system: Staphylococcus aureus ATCC 29213; test: Antimicrobial bioassay, S. aureus; assay type: cell-based; details: Staphylcoccus aureus, concentrations up to 50 μg/mL
Method: (§2) Antimicrobial Bioassay: Staphylococcus aureus ATCC 29213 and methicillin-resistant S. aureus ATCC 43300 (MRS) were obtained from the American Type Culture Collection (Rockville, Md.) and stored on agar slants at 4° C. until needed. Susceptibility testing was performed using a modified version of the NCCLS methods: “Methods for Dilution Antimicrobial Susceptibility Tests for Bacteria that Grow Aerobically,” M7-A4, Vol. 17, No. 2, NCCLS, (1997) and “Reference Method for Broth Dilution Antifungal Susceptibility Testing of Yeasts; Approved Standard,” M27-A, Vol. 17, No. 9, NCCLS, (1997), both of which are incorporated herein by reference. Microorganisms were subcultured prior to the assay by suspending cells from the slant in Eugon broth (BBL, Maryland) and incubating for 24 hours at 37° C. Inocula were prepared by diluting the subcultured organism in its incubation broth after comparison to the 0.5 McFarland Standard (a BaSO4 suspension) to afford final inocula ranges of S. aureus: 1.0-5.0×10^5 and MRS: 0.2-6.0×10^5 CFU/ml. Test compounds were dissolved in DMSO, serially-diluted using normal saline, and transferred in duplicate to 96 well flat-bottomed microtiter plates. The microbial inocula were added to the samples to achieve a final volume of 200 μl and final compound concentrations starting with 50 μg/ml. Drug [Ciprofloxacin (ICN Biomedicals, Ohio)] as well as growth and blank (media only) controls were added to each test plate. Plates were read at 630 nm using the EL-340 Biokinetics Reader (Bio-Tek Instruments, Vermont) prior to and after incubation at 37° C. for 24 hours. Percent growth was calculated and plotted versus concentration to afford the IC50, or sample concentration that affords 50% growth of the organism relative to controls.

[8] = system: methicillin-resistant S. aureus ATCC 43300; test: Antimicrobial bioassay, methicillin-resistant S. aureus; assay type: cell-based, Staphylococcus aureus
Method: as §2

[9] = system: Pseudomonas aeruginosa; test: Antimicrobial bioassay, P. aeruginosa; assay type: cell-based; details: concentrations up to 50 μg/mL
[10] = system: double-stranded DNA oligonucleotide; test: DNA binding by ESI-MS; design: key: MetalDepend.: all ligand-DNA complex ions also contained a metal ion.; None: no ligand-DNA complex ions observed.; MetalIndepend.: ligand-DNA and ligand-DNA-metal ion complex ions observed; details: ligand-DNA complex ions, presence or absence of added NiCl2
[11] = system: gram-positive or gram negative bacteria; details: gram-positive or gram negative bacteria, concentrations as large as 250 μM; cited from earlier work

COC(=O)c1cccc2oc(-c3cccc4oc(-c5ccccc5O)nc34)nc12 [UK-1]
IC50 [1]: 1600 nM
IC50 [2]: 65000 nM
IC50 [3]: 500 nM
IC50 [4]: 170 nM
IC50 [5]: 7000 nM
IC50 at 72 h [6]: 320 to 65000 nM
antibacterial effect [7]: no indication of any antibacterial effect
IC50 ([8]; Staphylococcus aureus, ATCC43300, Methacilline-resistant Staph. Aureus, growth inhibited by 50%, read-out: Staph. aureus IC50): > 50 µg/mL
antibacterial effect ([8]; methicillin-resistant S. aureus, concentrations up to 50 μg/mL): no indication of any antibacterial effect
antibacterial effect [9]: no indication of any antibacterial effect
DNA-Binding ESI-MS [10]: MetalDepend.^d
growth inhibition [11]: does not inhibit the growth
